# Data from BindingDB's records for doi:10.1016/j.bmcl.2017.10.036 (Williams College, 2017).
# Target: T1, Histidine kinase (Caulobacter vibrioides, UniProt Q9X688)
# T1 sequence (Q9X688 whole entry): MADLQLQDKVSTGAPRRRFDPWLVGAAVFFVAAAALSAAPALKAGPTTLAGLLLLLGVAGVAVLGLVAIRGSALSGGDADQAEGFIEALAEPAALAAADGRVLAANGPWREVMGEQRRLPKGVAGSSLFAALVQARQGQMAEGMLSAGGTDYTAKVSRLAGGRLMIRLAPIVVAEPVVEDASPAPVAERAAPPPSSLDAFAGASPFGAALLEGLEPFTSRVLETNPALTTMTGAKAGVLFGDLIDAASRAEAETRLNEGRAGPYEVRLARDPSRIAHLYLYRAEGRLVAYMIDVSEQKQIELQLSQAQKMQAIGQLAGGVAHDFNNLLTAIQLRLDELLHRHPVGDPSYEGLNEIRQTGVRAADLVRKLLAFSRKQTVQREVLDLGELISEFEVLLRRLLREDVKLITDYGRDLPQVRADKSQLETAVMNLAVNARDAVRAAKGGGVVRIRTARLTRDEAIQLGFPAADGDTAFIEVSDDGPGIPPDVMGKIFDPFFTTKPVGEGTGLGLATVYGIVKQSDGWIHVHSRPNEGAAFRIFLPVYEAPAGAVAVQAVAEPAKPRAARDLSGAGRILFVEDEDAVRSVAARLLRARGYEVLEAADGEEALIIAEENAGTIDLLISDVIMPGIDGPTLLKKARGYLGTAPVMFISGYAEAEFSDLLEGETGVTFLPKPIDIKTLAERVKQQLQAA
# Experiment: Inhibition of recombinant Caulobacter vibrioides cell cycle histidine kinase CckA deltaTM mutant DHp domain (70 to 691 residues) expressed in Escherichia coli in presence of varying levels of ATP measured every 60 secs for 2 hrs by PK/LDH enzyme coupled assay
row,Structure (SMILES),IC50 [µM]
1,"CCNC(=O)c1noc(-c2cc(C(C)C)c(O)cc2O)c1-c1ccc(CN2CCOCC2)cc1 [5-[2,4-dihydroxy-5-(propan-2-yl)phenyl]-N-ethyl-4-[4-(morpholin-4-ylmethyl)phenyl]-1,2-oxazole-3-carboxamide]",7.3
2,"Cc1[nH]nc(-c2cc(Cl)c(O)cc2O)c1-c1ccc2c(c1)OCCO2 [4-chloro-6-[4-(2,3-dihydro-1,4-benzodioxin-6-yl)-5-methyl-1H-pyrazol-3-yl]benzene-1,3-diol]",11.2
3,COc1ccc(-c2c(-c3cc(Cl)c(O)cc3O)n[nH]c2C)cc1,12.3
4,Oc1cc(O)c(-c2n[nH]cc2-c2ccc3c(c2)OCCO3)cc1Cl,32.3
5,CCc1cc(-c2n[nH]c(C)c2-c2ccc3c(c2)OCCO3)c(O)cc1O,28
